Results reported in patent publication US8916204B2, “SPARC and methods of use thereof” (Abraxis BioScience, LLC, priority 2004, dated 2014).

Test system: endothelial monolayers (gp60-mediated caveolar transcytosis)
Experiment: inhibition of transport of paclitaxel from ABX across endothelial monolayers
Format: in vitro ADME, human
From the text: Transport was dependent on albumin.

Molecule | effect on transport of paclitaxel from ABX
CCN1C(=O)C=CC1=O [NEM] | inhibited
[…]-methyl cyclodextrin [BMC] | inhibited
